Measured values as given in PubChem BioAssay (NCI).
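Protocol summary: plate cells (96-well), add compound at 5 concentrations, incubate 48 h, interpolate endpoints linearly. The concentration for 50% growth inhibition is given as GI50. The concentration for full growth arrest is given as TGI.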

Columns and labels:
Assay in all cases: NCI anticancer screen, dose series, 48 h
[1] = tested on: HS 578T breast
[2] = tested on: U251 CNS
[3] = tested on: NCI-H226 lung
[4] = tested on: COLO 205 colon
[5] = tested on: K-562 leukemia
[6] = tested on: SNB-75 CNS
[7] = tested on: M14 melanoma
[8] = tested on: LOX IMVI melanoma
[9] = tested on: SR leukemia
[10] = tested on: UACC-257 melanoma
[11] = tested on: HOP-62 NSCLC
[12] = tested on: HCT-15 colon
[13] = tested on: SW-620 colon
[14] = tested on: SF-295 CNS
[15] = tested on: MDA-MB-435
[16] = tested on: HT29 colon
[17] = tested on: SF-268 CNS
[18] = tested on: SK-MEL-5 melanoma
[19] = tested on: OVCAR-3 ovarian
[20] = tested on: MCF7 breast
[21] = tested on: HL-60(TB) leukemia
[22] = tested on: KM12 colon
[23] = tested on: PC-3 prostate
[24] = tested on: RPMI-8226 leukemia
[25] = tested on: MOLT-4 leukemia
[26] = tested on: NCI/ADR-RES ovarian
[27] = tested on: SN12C renal
[28] = tested on: MDA-MB-231 breast
[29] = tested on: OVCAR-5 ovarian
[30] = tested on: OVCAR-4 ovarian
[31] = tested on: UACC-62 melanoma
[32] = tested on: UO-31 renal
[33] = tested on: 786-0 renal
[34] = tested on: EKVX NSCLC
[35] = tested on: IGROV1 ovarian
[36] = tested on: CCRF-CEM leukemia
[37] = tested on: SNB-19 CNS
[38] = tested on: HCT-116 colon
[39] = tested on: HCC-2998 colon
[40] = tested on: DU-145 prostate
[41] = tested on: TK-10 renal
[42] = tested on: SK-MEL-28 melanoma
[43] = tested on: SK-OV-3 ovarian
[44] = tested on: NCI-H522 lung
[45] = tested on: SF-539 CNS
[46] = tested on: ACHN renal
[47] = tested on: SK-MEL-2 melanoma
[48] = tested on: RXF 393 renal
[49] = tested on: NCI-H460 lung
[50] = tested on: T-47D breast
[51] = tested on: BT-549 breast
[52] = tested on: OVCAR-8 ovarian
[53] = tested on: MALME-3M melanoma
[54] = tested on: CAKI-1 renal
[55] = tested on: A549 NSCLC
[56] = tested on: HOP-92 NSCLC
[57] = tested on: A498 renal

C/C(=C(/c1ccc(O)cc1)c1ccc(OCCN2CCCC2)cc1)c1ccc(Cl)cc1
GI50 [1]: 2.56 µM
TGI [1]: 8.36 µM
GI50 [2]: 2.03 µM
TGI [2]: 4.59 µM
GI50 [3]: 10.8 µM
TGI [3]: 32.4 µM
GI50 [4]: 1.64 µM
TGI [4]: 3.14 µM
GI50 [5]: 1.64 µM
TGI [5]: 3.94 µM
GI50 [6]: 3.06 µM
TGI [6]: 16.6 µM
GI50 [7]: 1.69 µM
TGI [7]: 3.23 µM
GI50 [8]: 1.71 µM
TGI [8]: 3.17 µM
GI50 [9]: 1.81 µM
TGI [9]: 4.71 µM
GI50 [10]: 1.78 µM
TGI [10]: 3.55 µM
GI50 [11]: 3.99 µM
TGI [11]: 15 µM
GI50 [12]: 1.99 µM
TGI [12]: 4.62 µM
GI50 [13]: 1.69 µM
TGI [13]: 3.24 µM
GI50 [14]: 2.16 µM
TGI [14]: 4.77 µM
GI50 [15]: 1.72 µM
TGI [15]: 3.21 µM
GI50 [16]: 1.73 µM
TGI [16]: 3.41 µM
GI50 [17]: 4.78 µM
TGI [17]: 20 µM
GI50 [18]: 1.78 µM
TGI [18]: 3.23 µM
GI50 [19]: 3.05 µM
TGI [19]: 11.8 µM
GI50 [20]: 0.0364 µM
TGI [20]: 3.26 µM
GI50 [21]: 2.09 µM
TGI [21]: 4.11 µM
GI50 [22]: 3.39 µM
TGI [22]: 12.2 µM
GI50 [23]: 2.94 µM
TGI [23]: 10.8 µM
GI50 [24]: 2.24 µM
TGI [24]: 5.52 µM
GI50 [25]: 2.52 µM
TGI [25]: 6.02 µM
GI50 [26]: 3.68 µM
TGI [26]: 14.2 µM
GI50 [27]: 5.21 µM
TGI [27]: 18.2 µM
GI50 [28]: 3.52 µM
TGI [28]: 13.1 µM
GI50 [29]: 6.26 µM
TGI [29]: 18.8 µM
GI50 [30]: 4.78 µM
TGI [30]: 17.2 µM
GI50 [31]: 2.04 µM
TGI [31]: 4.57 µM
GI50 [32]: 2.51 µM
TGI [32]: 11.4 µM
GI50 [33]: 1.65 µM
TGI [33]: 3.16 µM
GI50 [34]: 5.84 µM
TGI [34]: 18.7 µM
GI50 [35]: 4.62 µM
TGI [35]: 17.5 µM
GI50 [36]: 2.41 µM
TGI [36]: 7.38 µM
GI50 [37]: 3.85 µM
TGI [37]: 13.8 µM
GI50 [38]: 1.63 µM
TGI [38]: 3.21 µM
GI50 [39]: 2.06 µM
TGI [39]: 4.21 µM
GI50 [40]: 4.54 µM
TGI [40]: 15.7 µM
GI50 [41]: 13.6 µM
TGI [41]: 27.3 µM
GI50 [42]: 1.75 µM
TGI [42]: 3.21 µM
GI50 [43]: 9.59 µM
TGI [43]: 21.5 µM
GI50 [44]: 1.83 µM
TGI [44]: 4.11 µM
GI50 [45]: 1.69 µM
TGI [45]: 3.24 µM
GI50 [46]: 3.35 µM
TGI [46]: 11.9 µM
GI50 [47]: 7.37 µM
TGI [47]: 20.5 µM
GI50 [48]: 1.63 µM
TGI [48]: 3.23 µM
GI50 [49]: 1.8 µM
TGI [49]: 3.33 µM
GI50 [50]: 1.54 µM
TGI [50]: 10.4 µM
GI50 [51]: 8.98 µM
TGI [51]: 21.1 µM
GI50 [52]: 2.82 µM
TGI [52]: 8.04 µM
GI50 [53]: 1.64 µM
TGI [53]: 3.11 µM
GI50 [54]: 2.07 µM
TGI [54]: 6.39 µM
GI50 [55]: 7.58 µM
TGI [55]: 20.5 µM
GI50 [56]: 2.38 µM
TGI [56]: 9.63 µM
GI50 [57]: 16.6 µM
TGI [57]: 32.3 µM
